Literature values, collected in patent US20220184087A1, “METHODS AND COMPOSITIONS RELATING TO TREATMENT OF CANCER” (The Penn State Research Foundation, priority 2019, published 2022).
One block for each compound: values may come before it.

Assays:
[1] = tested on: human head and neck cancer cells
[2] = tested on: murine head and neck cancer cells
MDM4 = biological target: T1, MDM4 (Homo sapiens, UniProt O15151); conditions: within p53-binding pocket
T1 sequence (O15151 1-490): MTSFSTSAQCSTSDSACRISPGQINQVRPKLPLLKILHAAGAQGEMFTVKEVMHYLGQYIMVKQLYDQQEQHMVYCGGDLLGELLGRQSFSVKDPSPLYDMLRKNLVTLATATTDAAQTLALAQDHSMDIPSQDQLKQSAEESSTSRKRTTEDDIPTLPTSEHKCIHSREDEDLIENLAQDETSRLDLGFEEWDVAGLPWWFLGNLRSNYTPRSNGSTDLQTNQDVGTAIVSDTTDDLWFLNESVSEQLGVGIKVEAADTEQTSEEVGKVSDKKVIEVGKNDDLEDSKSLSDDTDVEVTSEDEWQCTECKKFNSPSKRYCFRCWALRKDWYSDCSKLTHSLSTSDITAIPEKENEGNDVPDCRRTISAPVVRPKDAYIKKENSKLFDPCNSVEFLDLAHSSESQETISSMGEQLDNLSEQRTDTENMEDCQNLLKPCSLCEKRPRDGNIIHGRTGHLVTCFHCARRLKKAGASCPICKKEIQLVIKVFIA

melanoma = melanoma patients

Compound: C=CCn1c(=O)c2cnc(Nc3ccc(N4CCN(C)CC4)cc3)nc2n1-c1cccc(C(C)(C)O)n1 [MK1775, 2-allyl-1-(6-(2-hydroxypropan-2-yl)pyridin-2-yl)-6-((4-(4-methylpiperazin-1-yl)phenyl)amino)-1H-pyrazolo[3,4-d]pyrimidin-3(2H)-one]
sensitization to NK lysis [1]: sensitized | sensitization to NK lysis [2]: sensitized

binding affinity to MDM4 (MDM4): high affinity
Compound: CCOc1cc(/C=C2/C(=O)N(c3ccccc3)N=C2C)cc(Cl)c1OCC(=O)OC [SJ-172550]

Compound: ipilimumab: anti-CTLA4 immune checkpoint inhibitor antibody
median PFS (melanoma): 2.9 months

Compound: nivolumab: anti-PD-1 immune checkpoint inhibitor antibody
median PFS (melanoma): 6.9 months
